Where “and” joins values, the source holds several entries; their conditions need not be identical. Equal values may be shown once. Numbers after ± are expanded uncertainties.
Settings: 283.15 K, Liquid, Vibrating tube method

CCCCCC(=O)OCC(COC(=O)CCCCC)(COC(=O)CCCCC)COC(=O)CCCCC [pentaerythritol tetrahexanoate]
Settings | mass density
147.5 kPa | 1004.2 ± 1.2 kg/m3
147.8 kPa | 1004.2 ± 1.2 kg/m3
148.2 kPa | 1004.2 ± 1.2 kg/m3
148.7 kPa | 1004.3 ± 1.2 kg/m3
150.5 kPa | 1004.1 ± 1.2 kg/m3
150.8 kPa | 1004.2 ± 1.2 kg/m3
151.3 kPa | 1004.3 ± 1.2 kg/m3
151.5 kPa | 1004.3 ± 1.2 kg/m3
151.7 kPa | 1004.3 ± 1.2 kg/m3
152.4 kPa | 1004.2 ± 1.2 kg/m3
152.7 kPa | 1004.2 ± 1.2 kg/m3
153.2 kPa | 1004.2 ± 1.2 kg/m3
153.4 kPa | 1004.2 ± 1.2 kg/m3
153.7 kPa | 1004.4 ± 1.2 kg/m3
154.1 kPa | 1004.3 ± 1.2 kg/m3
154.3 kPa | 1004.2 ± 1.2 kg/m3
154.6 kPa | 1004.1 ± 1.2 kg/m3 and 1004.2 ± 1.2 kg/m3
155.1 kPa | 1004.3 ± 1.2 kg/m3
155.7 kPa | 1004.2 ± 1.2 kg/m3
156.4 kPa | 1004.2 ± 1.2 kg/m3
156.5 kPa | 1004.1 ± 1.2 kg/m3 and 1004.2 ± 1.2 kg/m3
157.2 kPa | 1004.3 ± 1.2 kg/m3
157.6 kPa | 1004.2 ± 1.2 kg/m3
157.7 kPa | 1004.2 ± 1.2 kg/m3
157.9 kPa | 1004.3 ± 1.2 kg/m3
160.5 kPa | 1004.2 ± 1.2 kg/m3
161 kPa | 1004.2 ± 1.2 kg/m3
161.4 kPa | 1004.2 ± 1.2 kg/m3
161.6 kPa | 1004.3 ± 1.2 kg/m3
162.3 kPa | 1004.3 ± 1.2 kg/m3
162.4 kPa | 1004.1 ± 1.2 kg/m3
163 kPa | 1004.2 ± 1.2 kg/m3
163.1 kPa | 1004.3 ± 1.2 kg/m3
163.8 kPa | 1004.3 ± 1.2 kg/m3
164.2 kPa | 1004.3 ± 1.2 kg/m3
164.5 kPa | 1004.2 ± 1.2 kg/m3
164.7 kPa | 1004.3 ± 1.2 kg/m3
165.2 kPa | 1004.2 ± 1.2 kg/m3
165.7 kPa | 1004.3 ± 1.2 kg/m3
166.4 kPa | 1004.1 ± 1.2 kg/m3
166.8 kPa | 1004.3 ± 1.2 kg/m3
166.9 kPa | 1004.3 ± 1.2 kg/m3
167.5 kPa | 1004.2 ± 1.2 kg/m3
168.2 kPa | 1004.2 ± 1.2 kg/m3
169.7 kPa | 1004.2 ± 1.2 kg/m3
173.5 kPa | 1004.2 ± 1.2 kg/m3
174.1 kPa | 1004.2 ± 1.2 kg/m3
174.8 kPa | 1004.1 ± 1.2 kg/m3
175.1 kPa | 1004.3 ± 1.2 kg/m3
175.4 kPa | 1004.2 ± 1.2 kg/m3
177 kPa | 1004.2 ± 1.2 kg/m3
177.9 kPa | 1004.2 ± 1.2 kg/m3
178 kPa | 1004.2 ± 1.2 kg/m3
178.4 kPa | 1004.1 ± 1.2 kg/m3
178.9 kPa | 1004.2 ± 1.2 kg/m3
179.4 kPa | 1004.2 ± 1.2 kg/m3
179.6 kPa | 1004.2 ± 1.2 kg/m3
179.8 kPa | 1004.2 ± 1.2 kg/m3
180.3 kPa | 1004.3 ± 1.2 kg/m3
181 kPa | 1004.2 ± 1.2 kg/m3
181.4 kPa | 1004.2 ± 1.2 kg/m3
181.9 kPa | 1004.3 ± 1.2 kg/m3
182.2 kPa | 1004.2 ± 1.2 kg/m3
182.9 kPa | 1004.3 ± 1.2 kg/m3
184.1 kPa | 1004.3 ± 1.2 kg/m3
185 kPa | 1004.3 ± 1.2 kg/m3
185.3 kPa | 1004.2 ± 1.2 kg/m3
185.7 kPa | 1004.2 ± 1.2 kg/m3
186 kPa | 1004.3 ± 1.2 kg/m3
186.4 kPa | 1004.2 ± 1.2 kg/m3
187.1 kPa | 1004.2 ± 1.2 kg/m3
187.6 kPa | 1004.3 ± 1.2 kg/m3
188.3 kPa | 1004.3 ± 1.2 kg/m3
188.6 kPa | 1004.2 ± 1.2 kg/m3
188.8 kPa | 1004.1 ± 1.2 kg/m3
189.2 kPa | 1004.2 ± 1.2 kg/m3
189.5 kPa | 1004.3 ± 1.2 kg/m3
189.9 kPa | 1004.3 ± 1.2 kg/m3
190.2 kPa | 1004.1 ± 1.2 kg/m3
190.5 kPa | 1004.3 ± 1.2 kg/m3
190.7 kPa | 1004.2 ± 1.2 kg/m3
191.4 kPa | 1004.2 ± 1.2 kg/m3
191.9 kPa | 1004.3 ± 1.2 kg/m3
192.3 kPa | 1004.3 ± 1.2 kg/m3 and 1004.2 ± 1.2 kg/m3
192.6 kPa | 1004.4 ± 1.2 kg/m3
192.8 kPa | 1004.2 ± 1.2 kg/m3
193.1 kPa | 1004.2 ± 1.2 kg/m3
193.3 kPa | 1004.2 ± 1.2 kg/m3
193.8 kPa | 1004.2 ± 1.2 kg/m3
194.4 kPa | 1004.2 ± 1.2 kg/m3
194.7 kPa | 1004.3 ± 1.2 kg/m3
195.1 kPa | 1004.3 ± 1.2 kg/m3
195.2 kPa | 1004.2 ± 1.2 kg/m3
195.8 kPa | 1004.2 ± 1.2 kg/m3
195.9 kPa | 1004.2 ± 1.2 kg/m3
196.3 kPa | 1004.3 ± 1.2 kg/m3
196.8 kPa | 1004.3 ± 1.2 kg/m3
197.1 kPa | 1004.2 ± 1.2 kg/m3
197.3 kPa | 1004.2 ± 1.2 kg/m3
197.5 kPa | 1004.1 ± 1.2 kg/m3
197.8 kPa | 1004.3 ± 1.2 kg/m3
198.2 kPa | 1004.2 ± 1.2 kg/m3
198.7 kPa | 1004.3 ± 1.2 kg/m3
198.9 kPa | 1004.3 ± 1.2 kg/m3
199.2 kPa | 1004.2 ± 1.2 kg/m3
199.6 kPa | 1004.4 ± 1.2 kg/m3
200.3 kPa | 1004.3 ± 1.2 kg/m3
200.8 kPa | 1004.1 ± 1.2 kg/m3 and 1004.3 ± 1.2 kg/m3
201 kPa | 1004.2 ± 1.2 kg/m3
201.5 kPa | 1004.1 ± 1.2 kg/m3
202 kPa | 1004.3 ± 1.2 kg/m3
202.2 kPa | 1004.4 ± 1.2 kg/m3
202.5 kPa | 1004.2 ± 1.2 kg/m3
202.7 kPa | 1004.1 ± 1.2 kg/m3
203.2 kPa | 1004.3 ± 1.2 kg/m3
204.1 kPa | 1004.1 ± 1.2 kg/m3
204.3 kPa | 1004.2 ± 1.2 kg/m3
204.6 kPa | 1004.2 ± 1.2 kg/m3
205.1 kPa | 1004.2 ± 1.2 kg/m3
205.7 kPa | 1004.2 ± 1.2 kg/m3
205.8 kPa | 1004.2 ± 1.2 kg/m3
206.5 kPa | 1004.3 ± 1.2 kg/m3 and 1004.2 ± 1.2 kg/m3
207 kPa | 1004.1 ± 1.2 kg/m3
208.6 kPa | 1004.2 ± 1.2 kg/m3
208.8 kPa | 1004.3 ± 1.2 kg/m3
209.3 kPa | 1004.2 ± 1.2 kg/m3
209.6 kPa | 1004.2 ± 1.2 kg/m3
210 kPa | 1004.2 ± 1.2 kg/m3
210.5 kPa | 1004.3 ± 1.3 kg/m3
211 kPa | 1004.2 ± 1.2 kg/m3
211.6 kPa | 1004.3 ± 1.2 kg/m3
212.1 kPa | 1004.2 ± 1.2 kg/m3
212.4 kPa | 1004.3 ± 1.2 kg/m3
212.8 kPa | 1004.3 ± 1.2 kg/m3
212.9 kPa | 1004.2 ± 1.2 kg/m3
213.5 kPa | 1004.3 ± 1.2 kg/m3
213.8 kPa | 1004.2 ± 1.2 kg/m3
214.5 kPa | 1004.3 ± 1.2 kg/m3
215.2 kPa | 1004.3 ± 1.2 kg/m3
215.7 kPa | 1004.2 ± 1.2 kg/m3
216.2 kPa | 1004.3 ± 1.2 kg/m3
216.8 kPa | 1004.2 ± 1.2 kg/m3
217.5 kPa | 1004.2 ± 1.2 kg/m3
219 kPa | 1004.1 ± 1.2 kg/m3
219.4 kPa | 1004.3 ± 1.2 kg/m3
